According to US20250197372A1 (priority 2020, published 2025):

Key:
Format in all cases: biochemical
[1] = molecular target: T1, recombinant alpha-glucosidase I (human full-length glucosidase I, Glu 1) (Homo sapiens, UniProt Q13724); test: Alpha-glucosidase I assay (Amplex Red glucose detection, synthetic trisaccharide substrate); details: Glucosidase 1; read-out: Glu 1 IC50
T1 construct: 6-His (C); made in house; host or cells: HEK-293T cells transduced with BacMam virus (virus raised in Sf9)
T1 sequence (Q13724 1-837): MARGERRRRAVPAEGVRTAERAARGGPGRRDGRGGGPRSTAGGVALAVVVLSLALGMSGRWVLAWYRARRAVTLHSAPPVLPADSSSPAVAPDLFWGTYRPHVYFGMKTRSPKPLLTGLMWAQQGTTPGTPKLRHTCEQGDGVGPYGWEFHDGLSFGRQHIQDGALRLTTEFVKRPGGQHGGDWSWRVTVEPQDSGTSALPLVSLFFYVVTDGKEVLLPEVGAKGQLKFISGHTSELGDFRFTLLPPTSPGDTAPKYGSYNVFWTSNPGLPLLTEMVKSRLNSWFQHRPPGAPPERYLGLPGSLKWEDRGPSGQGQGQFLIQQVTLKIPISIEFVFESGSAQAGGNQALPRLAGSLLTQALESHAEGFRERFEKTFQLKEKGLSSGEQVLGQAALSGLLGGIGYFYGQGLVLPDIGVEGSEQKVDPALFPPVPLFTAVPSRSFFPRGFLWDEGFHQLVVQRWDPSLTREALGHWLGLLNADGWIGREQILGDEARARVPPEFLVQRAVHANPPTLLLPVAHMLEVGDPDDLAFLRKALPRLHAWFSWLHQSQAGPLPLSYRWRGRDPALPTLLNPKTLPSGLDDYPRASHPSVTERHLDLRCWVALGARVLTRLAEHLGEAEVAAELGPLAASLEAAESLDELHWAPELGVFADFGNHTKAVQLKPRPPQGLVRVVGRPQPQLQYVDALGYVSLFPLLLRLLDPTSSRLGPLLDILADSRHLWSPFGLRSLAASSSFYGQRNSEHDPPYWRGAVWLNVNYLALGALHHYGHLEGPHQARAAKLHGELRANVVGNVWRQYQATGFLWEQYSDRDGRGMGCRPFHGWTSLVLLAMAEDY
Summary of the method: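 Human full-length glucosidase I, His-tagged, […] and Ni-purified. Enzyme preincubated with compound dilutions 60 min at 37° C, then synthetic trisaccharide substrate 90 min at 37° C; stopped with 1.5M Tris pH 8.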

[2] = molecular target: T2, recombinant alpha-glucosidase II (murine full-length glucosidase II, alpha and beta subunits, Glu 2) (Mus musculus, UniProt Q8BHN3); test: Alpha-glucosidase II assay (4-methylumbelliferyl-alpha-D-pyranoside substrate, fluorescence); details: Glucosidase 2; read-out: Glu2 IC50
T2 construct: made in house; host or cells: HEK-293T cells transduced with BacMam viruses (75% alpha, 25% beta); protein harvested from culture supernatant

[3] = molecular target: rat maltase (partially purified alpha-glucosidase from intestinal rat powder); test: Intestinal alpha-glucosidase assay, maltose substrate (Glucose GO Kit)
Summary of the method: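 Enzyme from intestinal rat powder, partially purified, is exposed to compound for 60 min at 37 °C. Disaccharide substrate (maltose or sucrose respectively) then reacts 30 min at 37 °C. Heat-stopped samples are assayed for glucose, and percent inhibition versus concentration gives IC50 via 4-PL.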

T2 sequence (O08795 15-521): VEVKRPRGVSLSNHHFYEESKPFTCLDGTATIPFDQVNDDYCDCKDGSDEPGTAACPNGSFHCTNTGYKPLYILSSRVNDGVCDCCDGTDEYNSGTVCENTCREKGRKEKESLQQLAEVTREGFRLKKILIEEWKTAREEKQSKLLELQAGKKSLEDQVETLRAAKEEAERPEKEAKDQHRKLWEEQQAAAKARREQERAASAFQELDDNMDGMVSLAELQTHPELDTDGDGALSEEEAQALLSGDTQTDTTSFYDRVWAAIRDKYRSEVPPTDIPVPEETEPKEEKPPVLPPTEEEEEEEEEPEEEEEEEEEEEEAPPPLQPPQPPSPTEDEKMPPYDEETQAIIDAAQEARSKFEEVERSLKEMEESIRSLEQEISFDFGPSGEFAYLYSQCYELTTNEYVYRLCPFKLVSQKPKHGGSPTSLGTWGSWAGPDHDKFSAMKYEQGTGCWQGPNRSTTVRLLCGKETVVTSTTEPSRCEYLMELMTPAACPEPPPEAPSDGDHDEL
T2 sequence (Q8BHN3 33-944): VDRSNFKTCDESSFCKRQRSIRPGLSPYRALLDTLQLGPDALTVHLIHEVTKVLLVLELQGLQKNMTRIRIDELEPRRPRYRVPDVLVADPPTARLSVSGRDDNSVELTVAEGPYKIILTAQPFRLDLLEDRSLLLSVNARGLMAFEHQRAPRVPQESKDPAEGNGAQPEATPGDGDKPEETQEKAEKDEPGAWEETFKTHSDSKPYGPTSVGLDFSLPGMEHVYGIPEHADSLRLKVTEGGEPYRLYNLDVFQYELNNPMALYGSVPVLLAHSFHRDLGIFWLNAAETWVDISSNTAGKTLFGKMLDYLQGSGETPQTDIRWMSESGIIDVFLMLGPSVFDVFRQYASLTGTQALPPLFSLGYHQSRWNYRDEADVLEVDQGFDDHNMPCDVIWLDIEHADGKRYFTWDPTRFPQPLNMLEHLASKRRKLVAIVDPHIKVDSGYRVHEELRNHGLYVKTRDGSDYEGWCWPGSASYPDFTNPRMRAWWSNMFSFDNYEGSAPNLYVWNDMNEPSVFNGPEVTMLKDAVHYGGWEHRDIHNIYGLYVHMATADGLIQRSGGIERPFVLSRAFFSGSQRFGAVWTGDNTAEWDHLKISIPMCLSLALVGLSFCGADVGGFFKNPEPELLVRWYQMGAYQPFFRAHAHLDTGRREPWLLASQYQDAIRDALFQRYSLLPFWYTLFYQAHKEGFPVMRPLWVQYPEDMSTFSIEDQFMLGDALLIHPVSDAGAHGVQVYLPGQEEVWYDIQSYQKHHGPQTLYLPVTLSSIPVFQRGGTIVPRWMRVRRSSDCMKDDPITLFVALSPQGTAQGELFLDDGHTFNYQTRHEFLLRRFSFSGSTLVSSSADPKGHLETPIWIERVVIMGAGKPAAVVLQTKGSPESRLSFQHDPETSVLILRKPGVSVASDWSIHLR

Row | Compound | IC50 [1] | IC50 [2] | IC50 [3]
1 | OC[C@@H]1[C@@H](O)[C@H](O)[C@@H](O)CN1Cc1cccc(CNc2ccc(-c3ccc[nH]3)cc2)c1 [Compound 1082, (2R,3R,4R,5S)-2-(hydroxymethyl)-1-{[3-({[4-(1H-pyrrol-2-yl)phenyl]amino}methyl)phenyl]methyl}piperidine-3,4,5-triol] | 69 nM | 5630 nM | 14 nM
2 | [N-]=[N+]=Nc1ccc(NCC[C@H]2CC[C@@H](CCN3C[C@H](O)[C@@H](O)[C@H](O)[C@H]3CO)CC2)c([N+](=O)[O-])c1 [Compound 1106, (2R,3R,4R,5S)-2-(hydroxymethyl)-1-{2-[(1s,4s)-4-{2-[(4-azido-2-nitrophenyl)amino]ethyl}cyclohexyl]ethyl}piperidine-3,4,5-triol] | < 1 nM | 9 nM | 31 nM
3 | OC[C@@H]1[C@@H](O)[C@H](O)[C@@H](O)CN1Cc1cccc(CNc2ccc(-c3cccnn3)cc2)c1 [Compound 1083, (2R,3R,4R,5S)-2-(hydroxymethyl)-1-{[3-({[4-(pyridazin-3-yl)phenyl]amino}methyl)phenyl]methyl}piperidine-3,4,5-triol] | 72 nM | 9990 nM | 54 nM
4 | O=[N+]([O-])c1cc(C2=COCCO2)ccc1NCc1ccc(CN2C[C@H](O)[C@@H](O)[C@H](O)[C@H]2CO)cc1 [Compound 1099, (2R,3R,4R,5S)-1-{[4-({[4-(5,6-dihydro-1,4-dioxin-2-yl)-2-nitrophenyl]amino}methyl)phenyl]methyl}-2-(hydroxymethyl)piperidine-3,4,5-triol] | < 1 nM | < 1 nM | < 1 nM
5 | Cc1cc(NCc2ccc(CN3C[C@H](O)[C@@H](O)[C@H](O)[C@H]3CO)cc2)cc(C2=COCCO2)c1 [Compound 1050, (2R,3R,4R,5S)-1-{[4-({[3-(5,6-dihydro-1,4-dioxin-2-yl)-5-methylphenyl]amino}methyl)phenyl]methyl}-2-(hydroxymethyl)piperidine-3,4,5-triol] | 32 nM | 3 nM | < 1 nM
6 | COc1cc(Br)cc(NCCn2cc(CCN3C[C@H](O)[C@@H](O)[C@H](O)[C@H]3CO)c3ccccc32)c1 [Compound 1075, (2R,3R,4R,5S)-1-[2-(1-{2-[(3-bromo-5-methoxyphenyl)amino]ethyl}-1H-indol-3-yl)ethyl]-2-(hydroxymethyl)piperidine-3,4,5-triol] | 1920 nM | 150 nM | 238 nM
7 | O=[N+]([O-])c1cc(-c2ccncc2)ccc1NCCc1ccc(CCN2C[C@H](O)[C@@H](O)[C@H](O)[C@H]2CO)cc1 [Compound 1110, (2R,3R,4R,5S)-2-(hydroxymethyl)-1-{2-[4-(2-{[2-nitro-4-(pyridin-4-yl)phenyl]amino}ethyl)phenyl]ethyl}piperidine-3,4,5-triol] | < 1 nM | < 1 nM | < 1 nM
8 | CN(Cc1ccc(CN2C[C@H](O)[C@@H](O)[C@H](O)[C@H]2CO)cc1)c1cc(-c2cccnn2)cc(C2CC2)c1 [Compound 1001, (2R,3R,4R,5S)-1-{[4-({[3-cyclopropyl-5-(pyridazin-3-yl)phenyl](methyl)amino}methyl)phenyl]methyl}-2-(hydroxymethyl)piperidine-3,4,5-triol] | 13 nM | 437 nM | < 1 nM
9 | OC[C@@H]1[C@@H](O)[C@H](O)[C@@H](O)CN1CCc1cn(CCNc2ccccc2)c2ccccc12 [Compound 1076, (2R,3R,4R,5S)-2-(hydroxymethyl)-1-(2-{1-[2-(phenylamino)ethyl]-1H-indol-3-yl}ethyl)piperidine-3,4,5-triol] | 1310 nM | 66 nM | 250 nM
10 | OC[C@@H]1[C@@H](O)[C@H](O)[C@@H](O)CN1CCc1ccc(CCNc2cc(Cl)cc(-c3noc(C4CCC4)n3)c2)cc1 [Compound 1122, (2R,3R,4R,5S)-1-{2-[4-(2-{[3-chloro-5-(5-cyclobutyl-1,2,4-oxadiazol-3-yl)phenyl]amino}ethyl)phenyl]ethyl}-2-(hydroxymethyl)piperidine-3,4,5-triol] | 1160 nM | 294 nM | 717 nM
11 | O=[N+]([O-])c1cc(-c2cccnn2)ccc1NCc1cccc(CN2C[C@H](O)[C@@H](O)[C@H](O)[C@H]2CO)c1 [Compound 1089, (2R,3R,4R,5S)-2-(hydroxymethyl)-1-{[3-({[2-nitro-4-(pyridazin-3-yl)phenyl]amino}methyl)phenyl]methyl}piperidine-3,4,5-triol] | 26 nM | 20700 nM | 36 nM
12 | O=[N+]([O-])c1cc(N2CCOCC2)ccc1NCc1ccc(CN2C[C@@H](O)[C@H](O)[C@@H](O)[C@@H]2CO)cc1 (stereo in doubt) [Compound 1069, (2S,3S,4S,5R)-2-(hydroxymethyl)-1-{[4-({[4-(morpholin-4-yl)-2-nitrophenyl]amino}methyl)phenyl]methyl}piperidine-3,4,5-triol] | 22 nM | 4 nM | < 1 nM
13 | OC[C@@H]1[C@@H](O)[C@H](O)[C@@H](O)CN1Cc1ccc(CNc2ccc(C3=COCCO3)cc2)cc1 [Compound 1093, (2R,3R,4R,5S)-1-{[4-({[4-(5,6-dihydro-1,4-dioxin-2-yl)phenyl]amino}methyl)phenyl]methyl}-2-(hydroxymethyl)piperidine-3,4,5-triol] | 12 nM | 1040 nM | 2 nM
14 | Cc1cc(NCc2ccc(CN3C[C@H](O)[C@@H](O)[C@H](O)[C@H]3CO)cc2)cc(-c2ncccn2)c1 [Compound 1053, (2R,3R,4R,5S)-2-(hydroxymethyl)-1-{[4-({[3-methyl-5-(pyrimidin-2-yl)phenyl]amino}methyl)phenyl]methyl}piperidine-3,4,5-triol] | 104 nM | 139 nM | 2 nM
15 | N#Cc1cc(NCc2cccc(CN3C[C@H](O)[C@@H](O)[C@H](O)[C@H]3CO)c2)cc(-c2ccc[nH]2)c1 [Compound 1045, 3-(1H-pyrrol-2-yl)-5-{[(3-{[(2R,3R,4R,5S)-3,4,5-trihydroxy-2-(hydroxymethyl)piperidin-1-yl]methyl}phenyl)methyl]amino}benzonitrile] | < 1 nM | 7700 nM | < 1 nM
16 | O=[N+]([O-])c1cc(-c2cccnn2)ccc1NCc1ccc(CN2C[C@H](O)[C@@H](O)[C@H](O)[C@H]2CO)cc1 [Compound 1101, (2R,3R,4R,5S)-2-(hydroxymethyl)-1-{[4-({[2-nitro-4-(pyridazin-3-yl)phenyl]amino}methyl)phenyl]methyl}piperidine-3,4,5-triol] | < 1 nM | 43 nM | < 1 nM
17 | OC[C@@H]1[C@@H](O)[C@H](O)[C@@H](O)CN1Cc1ccc(CNc2ccc(-c3ncccn3)cc2)cc1 [Compound 1096, (2R,3R,4R,5S)-2-(hydroxymethyl)-1-{[4-({[4-(pyrimidin-2-yl)phenyl]amino}methyl)phenyl]methyl}piperidine-3,4,5-triol] | 15 nM | 1430 nM | 11 nM
18 | N#Cc1cc(NCc2ccc(CN3C[C@H](O)[C@@H](O)[C@H](O)[C@H]3CO)cc2)cc(-c2ncccn2)c1 [Compound 1065, 3-(pyrimidin-2-yl)-5-{[(4-{[(2R,3R,4R,5S)-3,4,5-trihydroxy-2-(hydroxymethyl)piperidin-1-yl]methyl}phenyl)methyl]amino}-benzonitrile] | 9 nM | 6 nM | 3 nM
19 | OC[C@@H]1[C@@H](O)[C@H](O)[C@@H](O)CN1Cc1cccc(CNc2ccc(N3CCOCC3)cc2)c1 [Compound 1081, (2R,3R,4R,5S)-2-(hydroxymethyl)-1-{[3-({[4-(morpholin-4-yl)phenyl]amino}methyl)phenyl]methyl}piperidine-3,4,5-triol] | 169 nM | 70400 nM | 110 nM
20 | CS(=O)(=O)c1cc(NCc2ccc(CN3C[C@H](O)[C@@H](O)[C@H](O)[C@H]3CO)cc2)cc(N2CCOCC2)c1 [Compound 1054, (2R,3R,4R,5S)-2-(hydroxymethyl)-1-{[4-({[3-methanesulfonyl-5-(morpholin-4-yl)phenyl]amino}methyl)phenyl]methyl}piperidine-3,4,5-triol] | 102 nM | 2200 nM | 57 nM
